Data on 21 molecules can be found in US5935955A, “Pharmaceutical piperazine compounds” (Xenova Limited, priority 1994, dated 1999).

For series [1], the system named is AR 1.0 cells. Description: Drug accumulation assay (tritiated daunorubicin). In kind it is cell-based. Particulars: Mus musculus; for IC50: daunorubicin 2 μM, 1 hr at 37° C., read-out: IC50 accumulation; for Emax: 1 h, read-out: Max accumulation. Here is the method:
AR 1.0 cells were seeded into 96 well opaque culture plates (Canberra Packard). The assay medium contained a mixture of tritiated Daunorubicin (DNR), a cytotoxic agent, and unlabelled DNR (0.3 μCi/ml; 2 μM). Compounds of formula I were serially diluted in assay medium over a range of concentrations from 5 nM to 100 μM. The cells were incubated at 37° C. for 1 hr before washing and determination of cell associated radioactivity. Results were expressed as % maximum accumulation where 100% accumulation is that observed in the presence of the known RMA verapamil at 100 μM. Where possible an IC50 was determined.

The subject of series [2] is AR 1.0 cells. Description: Compound toxicity (proliferation, sulphorhodamine B). It is filed as cell-based. Particulars: Mus musculus, 96 h; compound alone; AR 1.0 cells; four day incubation; read-out: Compound toxicity (IC50).
Series [3] deals with AR 1.0 cells. The experiment in a line: Potentiation index for doxorubicin (doxorubicin titration with fixed concentration of compound). In kind it is cell-based, mouse. Particulars: RMA at 1 μM; doxorubicin, four days. Here is the method: The EMT6 mouse mammary carcinoma cell line and the MDR resistant sublime AR 1.0 were cultured in RPMI 1640 medium containing 10% foetal calf serum and 2 mM glutamine at 37° C. in 5% CO2. Cells were passaged between 1 in 200 and 1 in 2000 in the case of the parental cell line and between 1 in 20 and 1 in 200 in the case of the MDR resistant subline, after trypsinisation (0.25% trypsin, 0.2 gl^-1, EDTA).
Cells were cultured for four days with a titration of doxorubicin (0.01 nm-50 μM) in the presence of a fixed concentration of each compound. Proliferation was quantified as described by Skehan et. al, loc cit. The IC50 (concentration required to reduce proliferation to 50% of the untreated controls) for doxorubicin alone and with each compound were derived and used to calculate the potentiation index (PI): [formula]

For series [4], the system named is AR 1.0 cells. Description: Potentiation of doxorubicin toxicity (fixed doxorubicin 0.86 μM, proliferation, sulphorhodamine B). The settings on record: for IC50: with doxorubicin 0.86 μM, four day incubation, 5760 min, read-out: Toxicity with cytotoxic agent (IC50). It is filed as cell-based, mouse. The source says:
Compounds of formula (I) were examined for their ability to potentiate the toxicity of doxorubicin in AR 1.0 cells.

[5] abbreviates: % maximum accumulation, 100% = verapamil at 100 μM, compound 5 nM to 100 μM.

Structures can show the parent of a compound that is named as a salt. Where two headings read alike, the source gives them in different places.

In general, IC50 refers to the midpoint of a concentration-inhibition curve. For `COc1cc2c(cc1OC)CN(CCc1ccc(NC(=O)c3ccc(/C=c4\[nH]c(=O)/c(=C/c5ccccc5)n(C)c4=O)cc3)cc1)CC2` [Compound 9006, N-(4-(2-(6,7-Dimethoxy-1,2,3,4-tetrahydro-2-isoquinolyl)ethyl)phenyl)-4-((3Z,6Z)-6-benzylidene-1-methyl-2,5-dioxo-3-piperazinylidene)methylbenzamide], the IC50 in the series on AR 1.0 cells [1] came out at 0.4 µM; in the series on AR 1.0 cells [2], 2 µM. Also, in the series on AR 1.0 cells [3], the Potentiation index was found to be 1000.

For `CN1CCN(CCNC(=O)c2ccc(/C=c3\[nH]c(=O)/c(=C/c4ccccc4)n(C)c3=O)cc2)CC1` [Compound 9007, N-(2-(4-Methyl-1-piperazinyl)ethyl)-4-((3Z,6Z)-6-benzylidene-1-methyl-2,5-dioxo-3-piperazinylidene)methylbenzamide], the Emax in the series with AR 1.0 cells [1] (setting [5]) worked out at 30%.

`COc1cc2c(cc1OC)CN(CCNC(=O)c1ccc(/C=c3\[nH]c(=O)/c(=C/c4ccccc4)n(C)c3=O)cc1)CC2` [Compound 9008, N-(2-(6,7-Dimethoxy-1,2,3,4-tetrahydro-2-isoquinolyl)ethyl)-4-((3Z,6Z)-6-benzylidene-1-methyl-2,5-dioxo-3-piperazinylidene)methylbenzamide]: the IC50 stood at 3 µM with AR 1.0 cells [1], 10 µM with AR 1.0 cells [2] and 2 µM with AR 1.0 cells [4].

On to `CN(C)CC(O)COc1ccc(/C=c2\[nH]c(=O)/c(=C/c3ccccc3)n(C)c2=O)cc1` (stereo not drawn) [Compound 9023, (3Z,6Z)-6-Benzylidene-3-(4-(3-dimethylamino-2-hydroxypropoxy)benzylidene)-1-methyl-2,5-piperazinedione], for which, in the series on AR 1.0 cells [1] (setting [5]), the Emax turned out to be 30%. Further, the results for the IC50 with AR 1.0 cells [2] and in the series with AR 1.0 cells [4] were 10 µM and 5 µM, respectively.

Regarding `CN1CCN(C(=O)c2ccc(/C=c3\[nH]c(=O)/c(=C/c4ccccc4)n(C)c3=O)cc2)CC1` [Compound 9052, 1-(4-((3Z,6Z)-6-Benzylidene-1-methyl-2,5-dioxo-3-piperazinylidene)methylbenzoyl)-4-methylpiperazine, hydrochloride], the IC50 in the series with AR 1.0 cells [1] was 100 µM.

Consider `Cn1c(=O)/c(=C/c2ccc(C(=O)NCCN3CCOCC3)cc2)[nH]c(=O)/c1=C/c1ccccc1` [Compound 9053, N-(2-Morpholinoethyl)-4-((3Z,6Z)-6-benzylidene-1-methyl-2,5-dioxo-3-piperazinylidene)methylbenzamide, hydrochloride], for which the IC50 came out at 50 µM in the series with AR 1.0 cells [1] and 40 µM in the series on AR 1.0 cells [2].

Consider `Cn1c(=O)/c(=C/c2ccc(C(=O)Nc3ccc(N4CCOCC4)cc3)cc2)[nH]c(=O)/c1=C/c1ccccc1` [Compound 9054, N-(4-Morpholinophenyl)-4-((3Z,6Z)-6-benzylidene-1-methyl-2,5-dioxo-3-piperazinylidene)methylbenzamide, hydrochloride], for which the Emax in the series with AR 1.0 cells [1] (setting [5]) was determined as 32%. Moreover, the IC50 was 50 µM in the series with AR 1.0 cells [2] and 30 µM with AR 1.0 cells [4].

For the molecule `C=CCNC(=O)c1ccc(/C=c2\[nH]c(=O)/c(=C/c3ccccc3)n(C)c2=O)cc1` [Compound 9070, N-Allyl-4-((3Z,6Z)-6-benzylidene-1-methyl-2,5-dioxo-3-piperazinylidene)methylbenzamide], the IC50 in the series with AR 1.0 cells [1] worked out at 5 µM; in the series on AR 1.0 cells [2], 40 µM.

As to `CN(CCNC(=O)c1ccc(/C=c2\[nH]c(=O)/c(=C/c3ccccc3)n(C)c2=O)cc1)C(c1ccccc1)c1ccccc1` [Compound 9076, N-(2-Diphenylmethylmethylaminoethyl)-4-((3Z,6Z)-6-benzylidene-1-methyl-2,5-dioxo-3-piperazinylidene)methylbenzamide, hydrochloride], the Emax in the series on AR 1.0 cells [1] (setting [5]) stood at 44%.

With `Cn1c(=O)/c(=C/c2ccc(C(=O)Nc3ccc(CCN4CCc5c([nH]c6ccccc56)C4)cc3)cc2)[nH]c(=O)/c1=C/c1ccccc1` [Compound 9080, N-(4-(2-(1,2,3,4-Tetrahydro-β-carbolin-2-yl)ethyl)phenyl)-4-((3Z,6Z)-6-benzylidene-1-methyl-2,5-dioxo-3-piperazinylidene)methylbenzamide], the Emax with AR 1.0 cells [1] amounted to 18%.

For the molecule `Cn1c(=O)/c(=C/c2cccc(C(=O)Nc3ccc(CCN4CCN(c5ccccc5)CC4)cc3)c2)[nH]c(=O)/c1=C/c1ccccc1` [Compound 9083, N-(4-(2-(4-Phenyl-1-piperazinyl)ethyl)phenyl)-3-((3Z,6Z)-6-benzylidene-1-methyl-2,5-dioxo-3-piperazinylidene)methylbenzamide], the IC50 in the series on AR 1.0 cells [1] stood at 2 µM; in the series with AR 1.0 cells [2] it was 3 µM; in the series with AR 1.0 cells [4], 0.1 µM.

For the molecule `Cn1c(=O)/c(=C/c2ccc(C(=O)Nc3ccc(CN4CCc5c([nH]c6ccccc56)C4)cc3)cc2)[nH]c(=O)/c1=C/c1ccccc1` [Compound 9096, N-(4-(1,2,3,4-Tetrahydro-β-carbolin-2-yl)methylphenyl)-4-((3Z,6Z)-6-benzylidene-1-methyl-2,5-dioxo-3-piperazinylidene)methylbenzamide], the Emax with AR 1.0 cells [1] was 20%.

Regarding `Cn1c(=O)/c(=C/c2ccc(C(=O)Nc3ccc(CCN4CCN(c5ccccc5)CC4)cc3)cc2)[nH]c(=O)/c1=C/c1ccccc1` [Compound 9103, N-(4-(2-(4-Phenyl-1-piperazinyl)ethyl)phenyl)-4-((3Z,6Z)-6-benzylidene-1-methyl-2,5-dioxo-3-piperazinylidene)methylbenzamide], the Emax with AR 1.0 cells [1] (setting [5]) turned out to be 20%.

For `COc1cc2c(cc1OC)CN(CCc1ccc(/C=c3\[nH]c(=O)/c(=C/c4ccccc4)n(C)c3=O)cc1)CC2` [Compound 9115, (3Z,6Z)-6-Benzylidene-3-(4-(2-(6,7-dimethoxy-1,2,3,4-tetrahydro-2-isoquinolyl)ethyl)benzylidene)-1-methyl-2,5-piperazinedione], the IC50 in the series on AR 1.0 cells [1] amounted to 5 µM; in the series with AR 1.0 cells [2], 60 µM; in the series on AR 1.0 cells [4], 2 µM.

As for `Cn1c(=O)/c(=C/c2ccc(C(=O)NCCN3CCc4ccccc4C3)cc2)[nH]c(=O)/c1=C/c1ccccc1` [Compound 9116, N-(2-(1,2,3,4-Tetrahydro-2-isoquinolyl)ethyl)-4-((3Z,6Z)-6-benzylidene-1-methyl-2,5-dioxo-3-piperazinylidene)methylbenzamide, hydrochloride], the IC50 in the series with AR 1.0 cells [1] came out at 4 µM; with AR 1.0 cells [2], 8 µM; in the series with AR 1.0 cells [4], 1 µM.

For the molecule `COc1ccc(CCNC(=O)c2ccc(/C=c3\[nH]c(=O)/c(=C/c4ccccc4)n(C)c3=O)cc2)cc1OC` [Compound 9117, N-(3,4-Dimethoxyphenethyl)-4-((3Z,6Z)-6-benzylidene-1-methyl-2,5-dioxo-3-piperazinylidene)methylbenzamide], the IC50 was 5 µM with AR 1.0 cells [1], 8 µM with AR 1.0 cells [2] and 3 µM in the series on AR 1.0 cells [4].

For `COc1cc2c(cc1OC)CN(Cc1ccc(NC(=O)c3cccc(/C=c4\[nH]c(=O)/c(=C/c5ccccc5)n(C)c4=O)c3)cc1)CC2` [Compound 9128, N-(4-(6,7-Dimethoxy-1,2,3,4-tetrahydro-2-isoquinolyl)methylphenyl)-3-((3Z,6Z)-6-benzylidene-1-methyl-2,5-dioxo-3-piperazinylidene)methylbenzamide], the half-inhibitory concentration (IC50) in the series on AR 1.0 cells [1] is 3 µM; in the series on AR 1.0 cells [2], 10 µM; with AR 1.0 cells [4], 2 µM.

Take `COc1ccc(CCN(C)CCNC(=O)c2cccc(/C=c3\[nH]c(=O)/c(=C/c4ccccc4)n(C)c3=O)c2)cc1OC` [Compound 9137]: the IC50 with AR 1.0 cells [1] was 2 µM; in the series on AR 1.0 cells [2] it was 12 µM; in the series with AR 1.0 cells [4] it was 4.5 µM.

For the molecule `COc1cc2c(cc1OC)CN(CCCc1ccc(NC(=O)c3cccc(/C=c4\[nH]c(=O)/c(=C/c5ccccc5)n(C)c4=O)c3)cc1)CC2` [Compound 9161, N-(4-(3-(6,7-Dimethoxy-1,2,3,4-tetrahydro-2-isoquinolyl)propyl)phenyl)-3-((3Z,6Z)-6-benzylidene-1-methyl-2,5-dioxo-3-piperazinylidene)methylbenzamide,hydrochloride], in the series on AR 1.0 cells [1] (setting [5]), the Emax amounted to 20%.

Take `COc1cc2c(cc1OC)CN(CC1CCN(C(=O)c3ccc(/C=c4\[nH]c(=O)/c(=C/c5ccccc5)n(C)c4=O)cc3)CC1)CC2` [Compound 9200, 1-(4-((3Z,6Z)-6-Benzylidene-1-methyl-2,5-dioxo-3-piperazinylidene)methylbenzoyl)-4-(6,7-dimethoxy-1,2,3,4-tetrahydroisoquinolyl)methylpiperidine]: the figures for the IC50 in the series with AR 1.0 cells [1], in the series on AR 1.0 cells [2] and with AR 1.0 cells [4] were 1.7 µM, 13 µM and 0.8 µM, respectively.

In the case of `COc1cccc2c1C(=O)c1c(O)c3c(c(O)c1C2=O)C[C@@](O)(C(=O)CO)C[C@@H]3O[C@H]1C[C@H](N)[C@H](O)[C@H](C)O1` [doxorubicin, reference compound], in the series with AR 1.0 cells [4] (doxorubicin alone, 0.86 μM, AR 1.0 cells), the “Toxicity of doxorubicin alone” value is on record as “non-toxic”.
